Experimental data published in PubChem BioAssay AID236 (DTP/NCI, 2004).
Values joined by “and” are separate entries in the source; they are usually repeats but may differ in a detail not shown here. Identical values can stand only once. Toxic doses and inconclusive results are not listed.

Test system: AK4 lymphoid leukemia ip, C3AKF1 mice, survival
Test: NCI In Vivo Anticancer Drug Screen. Data for tumor model AK4 Lymphoid Leukemia (intraperitoneal) in C3AKF1 (CHKRF1) mice
Settings: endpoint: median survival time, schedule: Q01DX010 (ip), vehicle: saline, higher = longer survival
Description: The antitumor activity of compounds was measured in mice bearing transplantable tumors. Survival or tumor size were measured and the results are expressed as the measurement made in the treated group (T) divided by the measurement made in the vehicle treated control group (C). The tumor model used in this assay is AK4 Lymphoid Leukemia (intraperitoneal) in C3AKF1 (CHKRF1) mice

`CN(C)c1nc(N(C)C)nc(N(C)C)n1` was tested, and the T/C (dose: 18.8 mg/kg/injection) was 94 % of control, the T/C (dose: 37.5 mg/kg/injection) was 100 % of control and the T/C (dose: 75.0 mg/kg/injection) was 94 % of control. For the same molecule, the T/C (dose: 150.0 mg/kg/injection) was 100 % of control.
For `[I][Hg][CH2]C1COC([CH2][Hg][I])CO1` (stereo unspecified), the T/C (dose: 0.78 mg/kg/injection) was 106 % of control, the T/C (dose: 1.56 mg/kg/injection) was 100 % of control and the T/C (dose: 3.13 mg/kg/injection) was 100 % of control. For the same molecule, the T/C (dose: 6.25 mg/kg/injection) was 100 % of control and the T/C (dose: 12.5 mg/kg/injection) was 88 % of control.
With `C[N+](C)(C)c1ncnc2nc[nH]c12` the T/C (dose: 15.0 mg/kg/injection) was 100 % of control, the T/C (dose: 30.0 mg/kg/injection) was 116 % of control and the T/C (dose: 60.0 mg/kg/injection) was 111 % of control. For the same molecule, the T/C (dose: 120.0 mg/kg/injection) was 88 % of control.
In the case of `O[C@H](CN1CC1)[C@@H](O)CN1CC1`, the T/C (dose: 250.0 micrograms/kg/injection) is reported as 164 % of control and the T/C (dose: 1000.0 micrograms/kg/injection) is reported as 105 % of control.
In the case of `CS(=O)(=O)OCCCl`, the T/C (dose: 18.8 mg/kg/injection) is reported as 100 % of control, the T/C (dose: 37.5 mg/kg/injection) is reported as 100 % of control and the T/C (dose: 75.0 mg/kg/injection) is reported as 100 % of control.
For `N#CCSc1ncnc2nc[nH]c12`, the T/C (dose: 15.0 mg/kg/injection) was 87 % of control, the T/C (dose: 30.0 mg/kg/injection) was 93 % of control and the T/C (dose: 60.0 mg/kg/injection) was 93 % of control. For the same molecule, the T/C (dose: 120.0 mg/kg/injection) was 87 % of control.
`S=P(N1CCOCC1)(N1CC1)N1CC1` was tested, and the T/C (dose: 2.5 mg/kg/injection) was 94 % of control, the T/C (dose: 5.0 mg/kg/injection) was 105 % of control and the T/C (dose: 10.0 mg/kg/injection) was 100 % of control. For the same molecule, the T/C (dose: 20.0 mg/kg/injection) was 94 % of control.
With `Cc1n[nH]c(=O)[nH]c1=O` the T/C (dose: 125.0 mg/kg/injection) was 87 % of control, the T/C (dose: 250.0 mg/kg/injection) was 100 % of control and the T/C (dose: 500.0 mg/kg/injection) was 87 % of control. For the same molecule, the T/C (dose: 1000.0 mg/kg/injection) was 87 % of control.
In the case of `O=C(O)CCCc1ccc(N(CCCl)CCCl)cc1`, the T/C (dose: 3.13 mg/kg/injection) is reported as 100 % of control, the T/C (dose: 6.25 mg/kg/injection) is reported as 113 % of control and 120 % of control and the T/C (dose: 12.5 mg/kg/injection) is reported as 95 % of control.
In the case of `N=C(N)c1ccc(Nc2ccc(C(=N)N)cc2)cc1`, the T/C (dose: 1.5 mg/kg/injection) is reported as 88 % of control, the T/C (dose: 3.0 mg/kg/injection) is reported as 88 % of control and 122 % of control and the T/C (dose: 6.0 mg/kg/injection) is reported as 94 % of control and 105 % of control. The T/C (dose: 12.0 mg/kg/injection) was 94 % of control and 111 % of control.
`C=CC(CN1CC1)OC(C)=O` (stereo unspecified) was tested, and the T/C (dose: 2.0 mg/kg/injection) was 90 % of control and 100 % of control, the T/C (dose: 4.0 mg/kg/injection) was 95 % of control and 111 % of control and the T/C (dose: 8.0 mg/kg/injection) was 88 % of control and 120 % of control. The T/C (dose: 16.0 mg/kg/injection) was 90 % of control.
